Results taken from PubChem BioAssay (NCI).
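These data come from cells grown in 96-well plates and exposed to compound for 48 hours at five concentrations. GI50: concentration for 50% inhibition of growth. TGI: concentration producing complete growth inhibition.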

Legend:
Assay in all cases: NCI-60 cell line screen, 48 h
[1] = test system: NCI-H23 lung
[2] = test system: M19-MEL melanoma
[3] = test system: DLD-1 colon
[4] = test system: UO-31 renal
[5] = test system: M14 melanoma
[6] = test system: CCRF-CEM leukemia
[7] = test system: NCI-H460 lung
[8] = test system: MCF7 breast
[9] = test system: BT-549 breast
[10] = test system: NCI/ADR-RES ovarian

| Compound | TGI [1] [µM] | TGI [2] [µM] | TGI [3] [µM] | TGI [4] [µM] | TGI [5] [µM] | TGI [6] [µM] | TGI [7] [µM] | GI50 [1] [µM] | GI50 [2] [µM] | GI50 [3] [µM] | GI50 [4] [µM] | GI50 [5] [µM] | GI50 [6] [µM] | GI50 [7] [µM] | GI50 [8] [µM] | TGI [8] [µM] | GI50 [9] [µM] | TGI [9] [µM] | GI50 [10] [µM] | TGI [10] [µM] |
| --- | --- | --- | --- | --- | --- | --- | --- | --- | --- | --- | --- | --- | --- | --- | --- | --- | --- | --- | --- | --- |
| COC12OCCN(C)C1=CC(=O)C1(C)N=NCC12 (stereo unspecified) | > 100 | > 100 | > 100 | > 100 | > 100 | > 100 | > 100 | – | – | – | – | – | – | – | – | – | – | – | – | – |
| CC(C)c1ccc(/C=C/c2cc(C(=O)NNC(=O)NC3CCCCC3)nc(=S)[nH]2)cc1 | > 100 | > 100 | > 100 | > 100 | > 100 | – | > 100 | – | – | – | – | – | – | – | – | – | – | – | – | – |
| COc1cccc(C2SCc3nc4ccccc4n32)c1 (stereo unspecified) | > 100 | > 100 | > 100 | 95.7 | > 100 | > 100 | > 100 | – | – | – | – | – | – | – | – | – | – | – | – | – |
| Cc1ccc(S(=O)(=O)OCCOCCOCCOCCOCCOS(=O)(=O)c2ccc(C)cc2)cc1 | > 100 | > 100 | > 100 | > 100 | > 100 | 66.4 | > 100 | – | – | – | – | – | – | – | – | – | – | – | – | – |
| COc1cc(O)c2c(c1)C(=O)C1=C(C2=O)C(O)C[C@@](C)(O)C1 (stereo partly specified) | 3.3 | 1.66 | 2.28 | 6.6 | 2.02 | > 24.9 | 4.96 | – | – | – | – | – | – | – | – | – | – | – | – | – |
| COc1ccc2c(c1)[n+]([O-])c(/C(C)=N/NC(=O)c1ccccc1O)c(C)[n+]2[O-] | > 100 | > 100 | > 100 | > 100 | > 100 | > 100 | > 100 | – | – | – | – | – | – | – | – | – | – | – | – | – |
| O=C1C(c2ccccc2)=C(c2ccccc2)C(c2ccc(Sc3ccc(C4=C(c5ccccc5)C(=O)C(c5ccccc5)=C4c4ccccc4)cc3)cc2)=C1c1ccccc1 | > 100 | > 100 | > 100 | > 100 | > 100 | > 100 | > 100 | – | – | – | – | – | – | – | – | – | – | – | – | – |
| COC(=O)C1[C@H](c2ccc3c(c2)OCO3)OC(=O)[C@]1(C(=O)OC)C(=O)c1ccc(OC)c(OC)c1 (stereo partly specified) | > 100 | > 100 | 40.1 | > 100 | > 100 | > 100 | > 100 | – | – | – | – | – | – | – | – | – | – | – | – | – |
| O=C(CSSCC(=O)Nc1ccc(Br)cc1)Nc1ccc(Br)cc1 | 35.2 | 34.2 | 35.9 | 31.8 | 32.7 | – | 37.7 | – | – | – | – | – | – | – | – | – | – | – | – | – |
| O=[N+]([O-])C=C1c2ccccc2-c2ccccc21 | 30.4 | – | 7.71 | 28.5 | 25.3 | 80.8 | 38.9 | – | – | – | – | – | – | – | – | – | – | – | – | – |
| CCOC(=O)CN(c1ccccc1)c1nc(=[N+](C)C)ss1 | – | 34 | > 100 | 54.5 | 96.8 | 36.5 | – | – | – | – | – | – | – | – | – | – | – | – | – | – |
| CC(C)=NNC(=S)NC12CC3CC(CC(C3)C1)C2 | > 100 | > 100 | – | > 100 | > 100 | > 100 | > 100 | – | – | – | – | – | – | – | – | – | – | – | – | – |
| N#CCc1nnc(N)o1 | > 100 | > 100 | > 100 | > 100 | > 100 | > 100 | – | – | – | – | – | – | – | – | – | – | – | – | – | – |
| CC[PH+](CC)CC.CC[PH+](CC)CC.[Au] | 28.6 | 31.9 | 18.9 | 35.8 | 22 | 11.9 | 60.9 | 13.3 | 4.06 | 5.52 | 21.4 | 6.68 | 2.04 | 23.5 | – | – | – | – | – | – |
| CC1=C(C(=O)CC(=O)C(=O)Nc2ccc(C)c(C)c2)Sc2ccccc2N1 | > 100 | > 100 | > 100 | > 100 | > 100 | – | > 100 | – | – | – | – | – | – | – | – | – | – | – | – | – |
| CCOC(=O)C1SC(=Nc2ccc(Cl)cc2Cl)N=C1C (stereo unspecified) | > 100 | > 100 | > 100 | > 100 | > 100 | – | > 100 | – | – | – | – | – | – | – | – | – | – | – | – | – |
| O=C1C(=O)N(c2ccc(Cl)cc2)C(=O)C(=Nc2cccc3c(=O)[nH][nH]c(=O)c23)C1c1nc2ccccc2o1 (stereo unspecified) | > 100 | > 100 | > 100 | > 100 | > 100 | > 100 | > 100 | – | – | – | – | – | – | – | – | – | – | – | – | – |
| CN(/N=C\c1ccnc2ccccc12)c1ccccc1 | 48.6 | 54 | 64.6 | 54.4 | 38.2 | 45.1 | 55.5 | – | – | – | – | – | – | – | – | – | – | – | – | – |
| Cc1ccc(C2=Nc3ccccc3S(=O)C(c3ccc4c(c3)OCO4)C2)cc1 (stereo unspecified) | 48.9 | > 100 | 30.7 | > 100 | 38 | 83.9 | > 10 | – | – | – | – | – | – | – | – | – | – | – | – | – |
| C=C1CC2(CCS(=O)(=O)c3ccccc32)OC1=O (stereo unspecified) | 27.7 | 37.2 | 25.9 | 26 | 20.3 | 11 | 35.3 | – | – | – | – | – | – | – | – | – | – | – | – | – |
| CN(C)C=Nc1c(I)cc(I)c(CCC(=O)O)c1I | > 100 | – | – | > 100 | > 100 | > 100 | > 100 | > 100 | – | – | > 100 | > 100 | > 100 | > 100 | > 100 | > 100 | > 100 | > 100 | > 100 | > 100 |
| c1ccc2c(CNCCCCCCCCNCc3cccc4ccccc34)cccc2c1 | 14.8 | 3.12 | 4.07 | 3.45 | 3.18 | 5.21 | 2.8 | – | – | – | – | – | – | – | – | – | – | – | – | – |
| O=C(O)CN(c1ccc(F)cc1)S(=O)(=O)c1ccccc1 | > 100 | > 100 | > 100 | > 100 | > 100 | > 100 | > 100 | – | – | – | – | – | – | – | – | – | – | – | – | – |
| OCC1CCCC1O (stereo unspecified) | > 100 | – | – | > 100 | > 100 | > 100 | > 100 | – | – | – | – | – | – | – | – | > 100 | – | > 100 | – | > 100 |
| COc1ccc2c(c1)C(c1cc(OC)c3c(c1)OCO3)C1=C(COC1=O)N2 (stereo unspecified) | > 64.9 | – | – | > 100 | 0.742 | > 100 | > 20.4 | 0.346 | – | – | 5.05 | 0.233 | 0.382 | 0.348 | 0.261 | 27.3 | 2.08 | > 100 | 0.292 | – |
